The results in this text go back to patent publication US5041436A, “1-arylsulphonyl-2-piperidinone derivatives, process and intermediates for the preparation thereof, their application as antispasmodics and compositions containing them” (Roussel Uclaf, priority 1989, dated 1991).

For test [1], the system named is isolated guinea pig ileum, contractions induced by barium chloride. Briefly: Antagonist action on contractions induced by barium chloride, isolated guinea pig ileum. The conditions noted are these: barium chloride 2×10^-4 M; contact time one minute; 37° C.; read-out: Antagonist to different agents (IC50), BaCl2. As for the experimental part: (§1) The interaction of the compounds with different receptors was assessed on isolated guinea pig ileum according to the following method.
(§2) Guinea pig ileum segments measuring 2.5-3 cm were washed and immediately suspended in a bath containing 10 ml of Tyrode's solution at 37° C. aerated with a mixture of oxygen (95%) and carbon dioxide (5%). After a stabilization period of at least 30 minutes, the contractions were recorded, maintaining the preparation under constant tension of 1 g using a gauge connected to a polygraph. The agonist action was assessed by leaving the compound in contact with the isolated tissue for a period necessary for expressing the maximal contraction; the preparation was then washed with Tyrode's solution. The next dose was added to the bath only after the preparation had returned to its base line. As a reference product, arecoline was employed. The antagonist action was assessed on contractions induced by acetyl choline (1×10^-6 M), histamine (1×10^-5 M) and barium chloride (2×10^-4 M). Atropine, diphenhydramine and papaverine were emplohyed as reference products. The contact time before adding the agonist was one minute.
(§3) For each compound, the dose-response curves are obtained with 4 to 6 different concentrations and 3 to 5 independent tests. The agonist activity is expressed by pD2 (negative logarithm of the dose which produces 50% of maximum effect). The antagonist activity is expressed by IC50 (concentration inhibiting 50% of the maximal response).

The subject of test [2] is isolated guinea pig ileum. Description: Agonist action on isolated guinea pig ileum. Particulars: negative logarithm of the dose which produces 50% of maximum effect. The protocol:
as §1, §2, §3

In test [3] the test system is cholinomimetic effects induced by carbachol. Description: In vivo anticholinergic action: inhibition of cholinomimetic effects induced by carbachol in mice. The arrangement: species or system CD1 male mice. The conditions noted are these: Mus musculus, ip. As for the experimental part: The anticholinergic activity of the compounds was determined by assessing the capacity to inhibit the cholinomimetic effects induced by carbachol. Atropine sulphate was employed as a reference product.
CD1 male mice weighing 25 to 30 g were used. They were distributed in groups of 6 animals and treated intraperitoneally with scalar doses of the products or 0.25% Methocel for the controls. 12 animals were used for each dose. 30 minutes after administration of the compounds, the mice were injected subcutaneously with 1 mg/kg of carbachol dissolved in physiological saline.
Each animal was examined 30 minutes after the injection of carbachol to assess the presence of diarrhoea, salivation and eye watering; in addition, the body temperature was measured by means of a thermocouple inserted 1.5 cm into the rectum.
For each compound, we have determined and recorded in the following table the dose capable of inhibiting the appearance of the carbachol-induced cholinometric symptoms in 50% of the animals, and of increasing by 1° C. the hypothermic effect induced by the cholinergic agent.

Test [4] has as its system isolated guinea pig ileum, contractions induced by acetyl choline. Description: Antagonist action on contractions induced by acetyl choline, isolated guinea pig ileum. Particulars: acetyl choline 1×10^-6 M; contact time one minute; 37° C.; read-out: Antagonist to different agents (IC50), ACh. The protocol:
as §1, §2, §3

Read-outs that look alike come from different tables or passages of the source.

Broadly, the IC50 is the midpoint of a concentration-inhibition curve. Turning to `COc1ccc(Cc2nccc3cc(OC)c(OC)cc23)cc1OC` [Papaverine, papaverine, reference compound], the half-inhibitory concentration (IC50) in test [1] was determined as 45 µM.
In the case of `COC(=O)C1=CCCN(C)C1` [Arecoline, arecoline, reference compound], in test [2], the “Agonist action pD2” value amounted to 6.68.
For `CN1[C@@H]2CC[C@H]1C[C@@H](OC(=O)C(CO)c1ccccc1)C2` (stereo partly drawn) [Atropine, reference compound], the ED50 came to 0.04 mg/kg in test [3] (read-out: Dose inhibiting carbachol-induced diarrhoea in 50% of the animals), 0.05 mg/kg in test [3] (read-out: Dose inhibiting carbachol-induced eye watering in 50% of the animals) and 0.06 mg/kg in test [3] (read-out: Dose inhibiting carbachol-induced salivation in 50% of the animals). Besides, the IC50 in test [4] was 0.0095 µM.
